Source: patent US20230159620A1, “COMPOSITIONS AND METHODS OF TREATMENT FOR VASCULAR DISEASES AND THROMBOSIS” (Washington University, priority 2021, published 2023)

Legend:
AKT [1] = assay: AKT signaling immunoblot / phospho-array, HUVECs; type: cell-based, human; details: PP1 10 μM, Dynasore 100 μM, vs DMSO
Description: Cellular reagents were purchased from various commercial vendors. Primary human umbilical vein endothelial cells (HUVECs) were obtained from Cell Applications Inc. and cultured according to the manufacture's recommendations. Primary human coronary artery smooth muscle cells were obtained from Invitrogen and were cultured according to the manufacture's recommendations. 293T cells were obtained from ATCC and were cultured according to the manufacture's recommendations. Mouse primary smooth muscle cells were obtained and cultured as described previously. Predesigned Silencer Select siRNA constructs targeting Pearl 1 and negative control siRNA were obtained from ThermoFisher. Transfections were performed using RNAiMAX or Lipofectamine 3000 transfection reagents according to the manufacturer's protocols. Cells were used for signaling assays 48 hours after transfection; efficient Pearl 1 knockdown or Pearl 1 overexpression was confirmed by immunoblot assays.
Prior to performing signaling assays, cells were trypsinized, centrifuged, suspended in basal media, and counted using an automated hemocytometer. Cells were further diluted in basal media to an assay-dependent concentration. Cells were then incubated with gentle agitation for 60 minutes to prevent cell attachment and reduce basal signaling. PP1, Dynasore, MK-2206, and Rapamycin were diluted in DMSO and used in assay concentrations of 10 μM, 100 μM, 10 μM, and respectively, for the final 20-30 minutes of incubation in basal media. An equal volume of DMSO was used as the negative control condition. […] 1 μg Pearl 1 polyclonal antibody was added as a specific positive control. 20% growth media or 2% fetal bovine serum, labeled “Serum” in figures, was added as a non-specific positive control. The cells were centrifuged at 300G for 3 minutes with the exception of platelets, which were centrifuged at 500G for 5 minutes. The cells were then incubated at 37° C. for 8-45 minutes, depending on the cell type and pathway of interest. The cells were lysed in radioimmunoprecipitation buffer (RIPA) containing a cocktail of protease and phosphatase inhibitors and universal nuclease. Immunoblots were performed by standard techniques, as briefly follows. Protein content was determined using a bicinchoninic acid assay with BSA standards (#23225, Pierce BCA Protein Assay Kit). Cell lysates were then reduced with dithiothreitol (DTT) in lithium dodecyl sulfate (LDS) sample buffer (#NP0007, Invitrogen). Equal protein amounts were added to polyacrylamide gels (#4561086, BioRad) and electrophoresed prior to transferring to a nitrocellulose or polyvinylidene fluoride membrane (#1620260, BioRad). Membranes were blocked in 5% BSA/Tris-buffered saline (TBS) with 0.1% Tween 20 for 30 minutes. […]

AKT [2] = assay: AKT signaling immunoblot, platelets; type: cell-based, human; details: platelets pretreated with inhibitor before SVEP1
Description: Prior to performing signaling assays, cells were trypsinized, centrifuged, suspended in basal media, and counted using an automated hemocytometer. Cells were further diluted in basal media to an assay-dependent concentration. Cells were then incubated with gentle agitation for 60 minutes to prevent cell attachment and reduce basal signaling. PP1, Dynasore, MK-2206, and Rapamycin were diluted in DMSO and used in assay concentrations of 10 μM, 100 μM, 10 μM, and respectively, for the final 20-30 minutes of incubation in basal media. An equal volume of DMSO was used as the negative control condition. […] 1 μg Pearl 1 polyclonal antibody was added as a specific positive control. 20% growth media or 2% fetal bovine serum, labeled “Serum” in figures, was added as a non-specific positive control. The cells were centrifuged at 300G for 3 minutes with the exception of platelets, which were centrifuged at 500G for 5 minutes. The cells were then incubated at 37° C. for 8-45 minutes, depending on the cell type and pathway of interest. The cells were lysed in radioimmunoprecipitation buffer (RIPA) containing a cocktail of protease and phosphatase inhibitors and universal nuclease. Immunoblots were performed by standard techniques, as briefly follows. Protein content was determined using a bicinchoninic acid assay with BSA standards (#23225, Pierce BCA Protein Assay Kit). Cell lysates were then reduced with dithiothreitol (DTT) in lithium dodecyl sulfate (LDS) sample buffer (#NP0007, Invitrogen). Equal protein amounts were added to polyacrylamide gels (#4561086, BioRad) and electrophoresed prior to transferring to a nitrocellulose or polyvinylidene fluoride membrane (#1620260, BioRad). Membranes were blocked in 5% BSA/Tris-buffered saline (TBS) with 0.1% Tween 20 for 30 minutes. The indicated primary antibodies were incubated with the pre-blocked membranes overnight at 4° C. Membranes were washed with TBS with 0.1% Tween 20, probed with fluorescent secondary antibodies, and imaged. β-actin or β-tubulin served as a loading control.
(§1) Whole blood was collected by venipuncture into either heparin vacutainers (BD, Franklin Lakes) for whole blood experiments or acid-citrate-dextrose (ACD) vacutainers (BD, Franklin Lakes) for platelet isolation studies. For platelet isolation, samples were supplemented with apyrase (Sigma, St Louis) and prostaglandin E1 (Cayman Chemical, Ann Arbor), and platelet-rich plasma (PRP) was prepared by centrifugation of the ACD whole blood for 20 minutes at 200G. Platelets were isolated from the PRP by centrifugation for 10 minutes at 1000G and resuspended in modified Tyrode's buffer twice at desired platelet counts and kept at 37° C. until used. Isolated platelets were used within 2 hours of preparation.

mTOR = mTOR signaling immunoblot, platelets; type: cell-based, human; details: platelets pretreated with inhibitor before SVEP1
Description: Prior to performing signaling assays, cells were trypsinized, centrifuged, suspended in basal media, and counted using an automated hemocytometer. Cells were further diluted in basal media to an assay-dependent concentration. Cells were then incubated with gentle agitation for 60 minutes to prevent cell attachment and reduce basal signaling. […] An equal volume of DMSO was used as the negative control condition. […] 1 μg Pearl 1 polyclonal antibody was added as a specific positive control. 20% growth media or 2% fetal bovine serum, labeled “Serum” in figures, was added as a non-specific positive control. The cells were centrifuged at 300G for 3 minutes with the exception of platelets, which were centrifuged at 500G for 5 minutes. The cells were then incubated at 37° C. for 8-45 minutes, depending on the cell type and pathway of interest. The cells were lysed in radioimmunoprecipitation buffer (RIPA) containing a cocktail of protease and phosphatase inhibitors and universal nuclease. Immunoblots were performed by standard techniques, as briefly follows. […] Cell lysates were then reduced with dithiothreitol (DTT) in lithium dodecyl sulfate (LDS) sample buffer (#NP0007, Invitrogen). […] Membranes were blocked in 5% BSA/Tris-buffered saline (TBS) with 0.1% Tween 20 for 30 minutes. The indicated primary antibodies were incubated with the pre-blocked membranes overnight at 4° C. Membranes were washed with TBS with 0.1% Tween 20, probed with fluorescent secondary antibodies, and imaged. β-actin or β-tubulin served as a loading control.
as §1, with “Platelets were isolated from the PRP by centrifugation for 10 minutes at 1000G and resuspended in modified Tyrode's buffer twice at desired platelet counts and kept at 37° C. until used. Isolated platelets were used within 2 hours of preparation.” left out

VSMCs = assay: VSMC proliferation assay (BrdU incorporation); type: cell-based, mouse
Description: Plates were UV sterilized before adding cells. […] For analysis of peritoneal macrophages, 4% thioglycolate-elicited peritoneal macrophages from Itg α9^MAC+/+ and Itg α9^MACfl/fl mice were suspended in BrdU dissolved in RPMI 1640 media containing 10% FBS. 2.5×10^4 cells were added to each well since peritoneal macrophages are smaller and have lower proliferation rates than VSMCs in culture.
Plates were ultraviolet (UV) sterilized before adding cells. […] Efficient Itgα9 knockdown was confirmed by qPCR.

[3] = Arterial blood pressure response to vasoactive agents; type: in vivo, mouse; details: venous administration, anesthetized Svep1+/+ and Svep1−/− mice
Description: Central arterial blood pressure and heart rate were measured under inhaled 1.5% isoflurane anesthesia and while mice were maintained at 37° C. using a heating pad and rectal thermometer, as done previously. Briefly, a midline incision was performed in the neck region; the thymus, muscle, and connective tissue were dissected away to isolate the right common carotid artery. After tying it distally and clamping it proximally, an incision was made in the right common carotid artery through which a Millar pressure transducer (model SPR-1000, Houston, Tex.) was introduced, the clamp was removed, and the transducer advanced to the ascending aorta. Once instrumentation was complete, arterial blood pressure (systolic, diastolic, and mean) and heart rate were recorded via the PowerLab® data acquisition system (ADlnstruments, Colorado Springs, Colo.). The average of a 3-minute period of stable recording was reported. Data were analyzed using LabChart® 8 for 673 MAC software (ADInstruments).
To assess the blood pressure response to vasoactive agents, after baseline blood pressure measurement, dissection was performed to visualize the left internal jugular (IJ) vein as done previously. Once identified, a small incision was made and PE-10 tubing was introduced and kept in place with a 6-0 silk suture. […]

| Compound | effect of inhibitor pretreatment on AKT activation by SVEP1 and Pearl 1 pAb (AKT [1]) | effect of inhibitor on activation of AKT by SVEP1 (AKT [2]) | dependence of SVEP1-induced p70S6K Thr 389 phosphorylation on the inhibited protein or process (mTOR) | change in blood pressure [3] | further results |
| --- | --- | --- | --- | --- | --- |
| O=C(N/N=C/c1ccc(O)c(O)c1)c1cc2ccccc2cc1O [Dynasore] | abrogated | partially abrogated | partially dependent |  |  |
| C[C@H](NC(=O)Cc1cc(F)cc(F)c1)C(=O)N[C@H](C(=O)OC(C)(C)C)c1ccccc1 [DAPT, reference compound] |  |  |  |  | effect on cell proliferation in response to 10% fetal bovine serum (VSMCs; 25 μM DAPT): not significantly inhibited; effect on SVEP1-induced proliferation (VSMCs; 25 μM DAPT vs DMSO): completely abrogated |
| NC1(c2ccc(-c3nc4ccn5c(=O)[nH]nc5c4cc3-c3ccccc3)cc2)CCC1 [MK-2206] |  | completely abrogated | partially dependent |  |  |
| CNC[C@H](O)c1cccc(O)c1 [phenylephrine] |  |  |  | dose-dependent manner |  |
| angiotensin II |  |  |  | dose-dependent manner |  |
| Cc1ccc(-c2nn(C(C)(C)C)c3ncnc(N)c23)cc1 [PP1] | abrogated | completely abrogated | dependent |  |  |
